In US6384019B1, “Gemcitabine derivatives” (Norsk Hydro ASA, priority 1997, dated 2002):
Several values for one entry are separate records, joined by “and”; a condition that tells them apart may be missing. Equal values may be shown once. Read-outs that look alike come from different tables or passages of the source.

Key:
[1] = tested on: CEM cells; assay: Cytostatic activity in CEM cells with and without nucleoside transport modifiers; type: cell-based; settings: for Rise in IC50 with the addition of NT inhibitors: with versus without NT inhibitors
Description: The cytostatic activity of gemcitabine and gemcitabine-5′-elaidic acid ester in CEM cells was determined with and without the nucleoside transport modifiers Nitrobenzylthioinosine (NBMPR) or Persantine (Pyridamole). […] With the addition of NT inhibitors, there is a ten-fold rise in the IC50 gemcitabine values, while the IC50 gemcitabine-5′-elaidic acid ester is little affected (1.3-1.5 increase).

[2] = tested on: subline C26G; assay: Cytotoxicity, continuous drug exposure 72 hours, SRB assay; type: cell-based, murine; settings: 72 hours continuous exposure, read-out: IC50 cytotoxicity C2G-G
Text: (§1) The cytoxicity activity of Gemcitabine-N^4-elaidic amide and Gemcitabine-5′-elaidic ester were investigated in 2 pairs of rodent and human tumour cell lines, each consisting of a parent line and a subline either resistant or cross-resistant to Gemcitabine.
(§2) The cell lines were the human ovarian tumour line A2780 and subline AG6000 which is resistant to Gemcitabine and has a deficiency of deoxycytidine kinase, and the murine colon tumour line C26A and the subline C26G with no altered deoxycytidine kinase but a 10-fold decrease in thymidine kinase I. The cytotoxicity of each compound was evaluated following continuous drug exposure for 72 hours. The cell numbers were determined by SRB assay, and percentage growth inhibition was calculated for each tumour line as IC50 value, given in μM, that is the concentration of the compound giving rise to a 50% growth inhibition compared to control.

[3] = tested on: murine lymphatic leukaemia P 388 cells; assay: P-388 ip in mice, single or repeated doses; type: in vivo
Text: (§3) The anti tumour effect of Gemcitabine-N^4-elaidic amide or Gemcitabine-5′-elaidic ester were investigated in-vivo in mice in two different tumour types, both with single and repeated dosing
B6D2F1 female mice were implanted with the murine lymphatic leukaemia P 388 cells intraperitoneally. Treatments were initiated on day 1 post implantation of cells intraperitoneally. […] Single dose treatment with Gemcitabine-5′-elaidic ester was effective with prolonged survival time and long term survivor observed compared to the same dose of Gemcitabine.

[4] = tested on: murine colon tumour line C26A; assay: Cytotoxicity, continuous drug exposure 72 hours, SRB assay; type: cell-based; settings: 72 hours continuous exposure, read-out: IC50 cytotoxicity C26-A
Text: as §1, §2

[5] = tested on: human ovarian tumour line A2780; assay: as above; type: cell-based
Text: as §1, §2

[6] = tested on: murine colon cancer Co-26; assay: Co-26 inoculated intrasplenic to mice, intraperitoneal treatment; type: in vivo
Description: as §3
Balb/c female mice were inoculated with the murine colon cancer Co-26 in the spleen on day 0. In this model, tumours develop mainly in the liver. Intraperitoneal treatment was started on day 1. Single doses of the compounds were tested in comparison with Gemcitabine at single dose. Saline was used as control.
In parallel experiment, dosing was repeated on days 1-11

[7] = tested on: subline AG6000 (resistant to Gemcitabine, deficiency of deoxycytidine kinase); assay: Cytotoxicity, continuous drug exposure 72 hours, SRB assay; type: cell-based, human
Text: as §1, §2

[8] = cited from earlier work
[9] = P-388, repeated dose days 1-11, 1 mg/kg
[10] = P-388, repeated dose days 1-11, 4 mg/kg
[11] = P-388, single dose treatment, 75 mg/kg
[12] = P-388, single dose treatment, 100 mg/kg
[13] = Co-26, repeated dosing days 1-11, 1 mg/kg
[14] = Co-26, repeated dosing days 1-11, 4 mg/kg
[15] = Co-26, single dose ip day 1, 75 mg/kg
[16] = Co-26, single dose ip day 1, 100 mg/kg
[17] = P-388, repeated dose days 1-4, 15 Mg/kg
[18] = P-388, repeated dose days 1-4, 1 Mg/kg
[19] = P-388, repeated dose days 1-4, 4 Mg/kg
[20] = Co-26, single dose ip day 1, 25 mg/kg

| Compound | Rise in IC50 with the addition of NT inhibitors ([1]; CEM cells) | IC50 [2] [nM] | Long term survivors (>45 d) [3, 9] | Mean survival time T/C [3, 9] [%] | Toxic deaths [3, 9] | Long term survivors (>45 d) [3, 10] | Mean survival time T/C [3, 10] [%] | Toxic deaths [3, 10] | Long term survivors (>35 d) [3, 11] | Mean survival time T/C [3, 11] [%] | Toxic deaths [3, 11] | IC50 [4] [nM] | IC50 ([5]; 72 hours continuous exposure) [nM] | Long term survivors (>46 d) [6, 13] | Mean survival time T/C [6, 13] [%] | Toxic deaths [6, 13] | Long term survivors (>46 d) [6, 14] | Mean survival time T/C [6, 14] | Toxic deaths [6, 14] | Long term survivors (>35 d) [6, 15] | also measured |
| --- | --- | --- | --- | --- | --- | --- | --- | --- | --- | --- | --- | --- | --- | --- | --- | --- | --- | --- | --- | --- | --- |
| CCCCCCCC/C=C/CCCCCCCC(=O)OC[C@H]1O[C@@H](n2ccc(N)nc2=O)C(F)(F)[C@@H]1O [Gemcitabine-5′-elaidic ester, Elaidic Acid (5′)-Gemcitabine Ester] | 1.3-1.5 fold | 0.5 |  0/6 | 317.0 |  0/6 |  2/6 | 220.6 |  0/6 | ⅙ | 186.3 |  0/6 | 0.3 | < 0.1 | ⅛ | 150.6 |  0/8 | ⅜ | 166.9% |  2/8 |  1/7 | IC50 ([1]; CEM cells, NBMPR 100 μM, read-out: IC50 NBMPR 100 μM): 72 ± 34 nM; IC50 ([1]; CEM cells, Persantine 4 μg/ml, read-out: IC50 Persantine 4 μg/ml): 65 ± 23 nM; IC50 ([1]; CEM cells, no inhibitor, read-out: IC50 No inhibitor): 47 ± 6 nM; Potency relative to the mother drug in the "resistant" situation ([1]; CEM cells, with NT inhibitors, versus gemcitabine): 15-20 fold; Long term survivors (>35 d) [3, 12]:  0/6; Mean survival time T/C [3, 12]: 138.9%; Toxic deaths [3, 12]:  0/6; Mean survival time T/C [6, 15]: 128.6%; Toxic deaths [6, 15]:  0/7; Long term survivors (>35 d) [6, 16]:  4/7; Mean survival time T/C [6, 16]: 100.1%; Toxic deaths [6, 16]:  0/7; IC50 ([7]; 72 hours continuous exposure): 100000 nM |
| Nc1ccn([C@@H]2O[C@H](CO)[C@@H](O)C2(F)F)c(=O)n1 [Gemcitabine, 2′,2′-difluoro-deoxycytidine] | ten-fold rise | – |  0/6 | 178.8 |  0/6 |  0/6 | 71.9 | 6/6 |  0/6 | 138.9 |  0/7 | – | – |  2/8 | 170.6 | ⅛ |  0/8 | toxic |  8/8 |  2/7 | IC50 ([1]; Homo sapiens, CCRF-CEM, read-out: IC50 Persantine 4 μg/ml): 1260 ± 40 nM; IC50 ([1]; Homo sapiens, CCRF-CEM, CEM cells, NBMPR 100 μM, read-out: IC50 NBMPR 100 μM): 1110 ± 80 nM; IC50 ([1]; Homo sapiens, CCRF-CEM, CEM cells, no inhibitor, read-out: IC50 No inhibitor): 110 ± 10 nM; IC50 ([2]; Mus musculus): 7.5 nM; Long term survivors (>35 d) [3, 17]:  0/6; Mean survival time T/C [3, 17]: 58.0%; Toxic deaths [3, 17]: all animals died of toxicity and  6/6; IC50 ([4]; Mus musculus): 5.5 nM; IC50 ([5]; Homo sapiens, A2780, 72 hours continuous exposure): 0.5 nM; Mean survival time T/C [6, 15]: 132.8%; Toxic deaths [6, 15]:  0/7; Long term survivors (>35 d) [6, 16]:  4/7; Mean survival time T/C [6, 16]: 116.2%; Toxic deaths [6, 16]:  0/7; Plasma concentration that inhibits the anti-cancer effect (saturation of the phosphorylation mechanism) [8]: above 35 μM; Plasma concentration with optimal effect [8]: about 20 μM; IC50 ([7]; Homo sapiens, AG6000, 72 hours continuous exposure): 100000 nM |
| CCCCCCCC/C=C/CCCCCCCC(=O)Nc1ccn(C2OC(CO)C(O)C2(F)F)c(=O)n1 (centres unmarked) [Gemcitabine-N^4-elaidic amide, Elaidic Acid (N^4)-Gemcitabine Amide] | – | < 0.1 | ⅙ | 172.5 |  0/6 |  0/6 | 215.7 |  0/6 | – | – | – | < 0.1 | < 0.1 |  2/8 | 155 |  0/8 | ⅛ | 185.6% |  0/8 | – | Long term survivors (>35 d) [3, 18]:  2/6; Mean survival time T/C [3, 18]: 178%; Toxic deaths [3, 18]:  0/6; Long term survivors (>35 d) [3, 19]: ⅙; Mean survival time T/C [3, 19]: 183%; Toxic deaths [3, 19]:  0/6; Long term survivors (>35 d) [6, 20]: 5/8 and ⅝; Mean survival time T/C [6, 20]: 103.7%; Toxic deaths [6, 20]: ⅛; IC50 ([7]; 72 hours continuous exposure): 35000 nM |
